Laboratory results: patent publication US10987318B2, “Application of clofoctol for manufacturing pharmaceutical product for treating human neuroglioma” (INSTITUTE OF BASIC MEDICAL SCIENCES, CHINESE ACADEMY OF …, priority 2016, dated 2021)

Legend:
[1] = system: GSC2 subcutaneous tumors; assay: Subcutaneous GSC2 xenograft at armpits of nude mice; assay type: in vivo, Balb/C nude mice; details: 20 mg/kg, intraperitoneal injection, 11 days
Method: Subcutaneous tumorigenesis at armpits of nude mice: after centrifugation and digestion, GSC2 single cell re-suspended in PBS was subcutaneously inoculated into the armpits of 15 Balb/C nude mice of 5 weeks old. The inoculation number of the cells was 10^5 cells/mouse. The tumor size of nude mice was recorded (tumor size in nude mice=length*width^2/2). When the subcutaneous tumors in nude mice reached about 100 mm^3, they were divided into DMSO group and clofoctol administration group. The dose administered was 20 mg/kg, the mice were administered by intraperitoneal injection for a period of 11 days. The changes in tumor size and the body weight in two groups of nude mice were recorded.

[2] = system: U87MG SLC-GFP xenograft; assay: Administration to zebrafish glioma xenograft model; assay type: in vivo; details: 10 μM in hatching solution, 48 hours
Method: 3000 green-fluorescent-labeled U87MG SLC-GFP were injected into the yolk sac of the 48-hour zebrafish embryo. After 48 hours of natural growth, fluorescence microscopy was used to detect the tumorigenesis in zebrafish. And then clofoctol at a concentration of 10 μM was added to the zebrafish hatching solution. After 48 hours of medicament treatment, the green fluorescence intensity of zebrafish yolk sac was detected by fluorescence microscopy to determine the in vivo inhibitory effect of clofoctol on tumors in zebrafish xenograft models.

[3] = system: glioma stem cells (GSC2-GFP, U87MG SLC-GFP) co-cultured with normal human astrocytes (HA); assay: Flow cytometry of co-culture model (GSC2-GFP or U87MG SLC-GFP + HA-RFP); assay type: cell-based; details: 24 hours, 1-30 μM; compared with normal human astrocytes
Method: 6-well and 96-well cell culture plates were pre-coated with 100 μg/mL poly-lysine at 37° C. overnight, followed by washing twice with saline and allowing to air-dry. GSC2-GFP cells stably expressing green fluorescence and HA cells stably expressing red fluorescence were digested into single cell, and resuspended in fresh culture medium, counted and diluted to 5×10^4 cells/mL. Then, the two types of cells were mixed well at a ratio of 1:1, divided into five tubes. Clofoctol were added in each tube and mixed well, so that the concentrations of clofoctol were 0 μM, 1 μM, 3 μM, 10 μM, 30 μM, respectively. The resulting mixtures were added to a 6-well cell culture plate (2 mL) and a 96-well cell culture plate (100 μL, 3 replicate wells per group) respectively for 24 hours, before the MTS assay was used to detect the cell activity of each treatment group in the 96-well cell culture plate. The cells in the 6-well cell culture plates were collected separately, washed twice with PBS, and resuspended with 100 μL respectively. The proportion of GSC2-GFP and HA-RFP in the viable cells of each treatment group was analyzed by flow cytometry. Considering the changes in cell activity after medicament treatment of the co-culture model, the relative cell viability of each cell component in the co-culture model was statistically analyzed. […]

[4] = system: glioma stem cells (U87MG SLC, U251 SLC, GSC2, GSC5); assay: Detection of cell viability by MTS assay; assay type: cell-based, human
Description: “MTS assay”: a colorimetric method for determining the number of viable cells in proliferation assays and cytotoxicity assays. MTS is a novel tetrazolium compound. PMS is an electron coupling reagent with enhanced chemical stability, which forms a stable solution when mixed with MTS. MTS can be reduced by cellular organisms to generate a colored formazan product that is soluble in culture media. This conversion is thought to be carried out by NAD(P)H-dependent dehydrogenase enzymes in metabolically active cells. The amount of the formazan product, which is quantified at 490 nm, is proportional to the number of viable cells in culture.
“The relative cell viability”: after the detection of the value of absorbance by above MTS assay, the relative cell viability is calculated based on the value of absorbance (A). […]
(2) In order to detect the effect of clofoctol on cell viability of glioma stem cells, the experiment was carried out using a 96-well cell culture plate which is coated with 100 μg/mL poly-lysine overnight, wherein the plate was washed twice next day with saline, and allowed to dry until use. The cells were digested, resuspended as a single cell suspension, counted and seeded on a 96-well cell culture plate (U87MG SLC (5000 cells/well), U251 SLC (10000 cells/well), GSC2 (10000 cells/well), GSC5 (10000 cells/well)), allowed to grow overnight. […]

[5] = system: glioma stem cells (GSC5; FIG. 6 legend: GSC2); assay: Recovery assay (MTS after removal of medicament); assay type: cell-based, human; details: 24 or 48 hours treatment, then 48 hours in fresh medium
Method: (1) The 96-well cell culture plate was coated with 100 μg/mL poly-lysine.
(2) GSC5 was digested into single cell using ACCUTASE enzyme, resuspended in fresh Neurobasal culture medium, and the cells were then plated on the pre-coated 96-well cell culture plates overnight;
(3) clofoctol was added, the concentration of which were 0.03 μM, 0.1 μM, 0.3 μM, 1 μM, 3 μM, 10 μM and 30 μM, 9 replicate wells for each concentration;
(4) after 24 hours of treatment, 20 μL MTS/PMS mixed reagent was added to 3 replicate wells of each concentration to measure the cell activity. The medicament-containing medium in the other 6 replicate wells was removed, fresh medium was added to 3 of the 6 replicate wells, and medium containing the same concentration of clofoctol was added to the rest 3 replicate wells;
(5) after 48 hours of incubation, cell activity was detected by MTS assay.
After 48 hours of medicament treatment, the cells were restored for 48 hours and then detected, the steps are as above.

[6] = system: GSC5; assay: Limited dilution experiment (self-renewal); assay type: cell-based, human; details: GSC5, 1 μM, 3 μM and 10 μM, 2 weeks
Method: (1) The cells of GSC5 tumorspheres in suspension culture were collected into a 15 mL centrifuge tube, 0.5 mL of ACCUTASE enzyme (purchased from sigma) was added, and the cells were digested at 37° C. for 5 minutes. Then the cells were pipetted to single cell and the supernatant was removed after centrifugation;
(2) Fresh Neurobasal culture medium (purchased from gibco) was added. A portion of the cells were taken for trypan blue staining, followed by cell counting.
(3) After calculating the desired volume of cell culture medium, the cell concentration gradient of 200, 100, 50, 25 cells/well was set, and 10 replicate wells for each concentration were set. The DMSO control group and medicament treatment group with 0 μM, 1 μM, 3 μM and 10 μM of clofoctol were set.
(4) The cells were seeded in a 96-well plate at 100 and cultured in an incubator at 37° C., 5% CO2, 2 weeks later the proportion of the well without tumorsphere was counted;

[7] = system: GSC2; assay: Annexin V/PI counterstaining for the detection of apoptosis; assay type: cell-based, human; details: GSC2, 1-30 μM, 12 hours or 24 hours
Method: (1) GSC2 were treated with clofoctol at the concentrations of 1 μM, 3 μM, 10 μM, 30 μM for 12 hours or 24 hours;
(2) the cells were collected and washed twice with PBS;
(3) the cells were resuspended with 50 μL 1*binding buffer with the cell density of about 1*10^6 cells/mL;
(4) 2.5 μL FITC Annexin V and 2.5 μL PI were added;
(5) incubating for 15 min at room temperature in the darkness;
(6) 200 μL of 1*binding buffer was added to the system, and the cells in each treatment tube was passed through the cell strainer;
(7) flow cytometry analysis;
The Annexin V/PI counterstaining kit used was purchased from BD pharmingen with the product lot number 556547.

[8] = system: GSC2 tumorspheres; assay: Experiment of tumorsphere formation; assay type: cell-based, human
Method: After coating the 96-well cell culture dish, 100 μL single cell suspension containing 5000 GSC2 was added to each well. After 4 days of natural growth, the original medium was removed, and 100 μL fresh culture containing various concentrations of clofoctol was added to each well. The medicament concentrations were 0.03 μM, 0.1 μM, 0.3 μM, 1 μM, 3 μM, 10 μM and 30 μM, respectively. After 48 hours of medicament treatment, the morphological changes of the tumorspheres in each treatment group were observed under the microscope, and the number of tumorspheres in each treatment group was also counted.

[9] = system: GSC2; assay: In situ tumorigenesis in nude mice of pretreated GSC2; assay type: in vivo, Balb/C nude mice
Method: The cells were collected after 24 hours of pre-treatment with clofoctol at a concentration of 30 μM, washed twice with PBS, and a portion of the cells were subjected to trypan blue staining and cell counting. The cells were injected in situ into the intracranial striatum of Balb/C nude mice aged 5-7 weeks, at 10^5 cells/mouse, 5 mice each group, and a DMSO control group was set.

## CC(C)(C)CC(C)(C)c1ccc(O)c(Cc2ccc(Cl)cc2Cl)c1 [clofoctol, 2-[(2,4-dichlorophenyl)methyl]-4-(2,4,4-trimethylpentan-2-yl)phenol]
[1]
  side effects (body weight): side effects were small
  tumor growth (tumor size): significantly inhibits tumor growth
[2]
  in vivo tumor growth (green fluorescence intensity of yolk sac): significantly inhibits the in vivo tumor growth
[3]
  relative cell viability of each cell component in the co-culture model: specifically inhibits the cell activity of glioma stem cells in the co-culture model
[4]; 48 hours, 0.3-30 μM, compared with glioma cells and normal human cell lines
  cell activity of glioma stem cells (MTS, FIG. 1): specifically inhibits the cell activity of glioma stem cells
[4]; Homo sapiens, four glioma stem cell strains (U87MG SLC, U251 SLC, GSC2, GSC5), after 48 hours treatment
  IC50: 7.65 to 10.5 µM
[5]
  reversibility of the effect on glioma stem cells after removal of medicament: irreversible to some extent
[6]
  formation of glioma stem cell clones (self-renewal ability): significantly inhibits the formation of glioma stem cell clones
[7]
  apoptosis in glioma stem cells: can induce apoptosis in glioma stem cells
[8]; GSC2, 0.03 μM, 0.1 μM, 48 hours
  morphology of tumorspheres at low concentrations: grow protuberances and exhibit clear differentiation-like characteristics
[8]; GSC2, 10 μM, 30 μM, 48 hours
  morphology of tumorspheres at high concentrations: caused the death of marginal cells of tumorspheres
[8]; GSC2, 48 hours, 0.03-30 μM
  size and number of tumorspheres: significantly reduce the size and number of tumorspheres
[9]; GSC2 pretreated 24 hours at 30 μM, 1 * 10^5 cells/mouse, intracranial striatum
  in situ tumorigenesis (mice with tumor / mice injected): 0/5
[9]; pretreatment of GSC2 at 30 μM for 24 hours
  ability of in situ tumorigenesis in nude mice: significantly inhibits its ability of in situ tumorigenesis in nude mice
